Experimental data from US20140135359A1, “METHODS OF DESIGNING, PREPARING, AND USING NOVEL PROTONOPHORES” (priority 2012, published 2014).

Legend:
[1] = tested on: isolated rat liver mitochondria; test: Uncoupling activity: increase in basal (state 4) oxygen consumption by oxygraphy; format: biochemical; conditions: for Measured Uncoupling Activity (% uncoupling ± SEM @ 100 μM): Suppl. Table 1, 2-3 mitochondrial preparations; for Measured Uncoupling (% uncoupling ± SEM @ 100 μM): Table 1A, relative to ADP-stimulated respiration = 100%; for Uncoupling (%): increase in basal (state 4) oxygen consumption as % of average ADP-stimulated (state 3) rate in vehicle-treated mitochondria
[2] = tested on: isolated rat liver mitochondria; test: Residual functional capacity / inhibitory effect on ADP-stimulated (state 3) oxygen consumption; format: biochemical; conditions: for inhibitory effect on oxidative phosphorylation: 50 μM (FIG. 19); for Residual capacity (%): functional capacity (state 3 minus state 4 rate) as % of vehicle-treated mitochondria
[3] = tested on: differentiated C2C12 skeletal muscle cells; test: 3H-deoxyglucose uptake in C2C12 myotubes; format: cell-based, murine; conditions: 18 h
Experimental: 2.3 ^3H-deoxyglucose uptake in C2C12 myotubes: Cell culture and the ^3H-deoxyglucose uptake assay were performed as previously described [34B, 35B, 37B]. Briefly, C2C12 murine skeletal myoblasts (American Type Culture Collection; Manassas, Va.) were cultured under standard conditions in 12-well plates. Cells were proliferated to 80% confluence in high-glucose Dulbecco's modified Eagle's medium (DMEM; Wisent; St-Bruno, QC) supplemented with 10% fetal bovine serum (FBS; Wisent), 10% horse serum (HS), and antibiotics. Differentiation into multinucleated myotubes was then promoted with DMEM supplemented with 2% HS and antibiotics. All uptake assays were performed on 7-day differentiated cells, and treatments were timed accordingly. […] DMSO concentration was fixed at 0.1% for all conditions. Cells were routinely inspected for abnormal morphology by phase-contrast microscopy at the conclusion of the treatment period. […] Cells were then washed twice in glucose-free KPB at 37° C. before incubation for exactly 10 min at 37° C. in glucose-free KPB containing 0.5 μCi/ml 2-deoxy-D-[1-^3H]glucose (Amersham Biosciences; Buckinghamshire, UK). Cells were then placed on ice and immediately washed three times with ice-cold KPB. Cells were inspected for monolayer detachment and lysed in 0.1 N NaOH with scraping. […] Three independent experiments of 18 h treatment duration were performed for each of the selected test compounds, with three replicates per condition per experiment. Vehicle-control and 50 μM 2,4-dinitrophenol conditions were included on every plate. Some compounds were also tested at 50 μM under the following conditions: a 15 h treatment with vehicle only followed by a 3 h treatment with the test compound; a 15 h treatment with the test compound followed by a 3 h repeat treatment.
Protocol for ^3H-deoxyglucose uptake assay in C2C12 or other skeletal muscle cells; C2C12 murine skeletal myoblasts (American Type Culture Collection; Manassas, Va.) may be cultured under standard conditions in 12-well plates. Cells may be proliferated to 80% confluence in high-glucose Dulbecco's modified Eagle's medium (DMEM) supplemented with 10% fetal bovine serum (FBS), 10% horse serum (HS), and antibiotics. Differentiation into multinucleated myotubes may be then promoted with DMEM supplemented with 2% HS and antibiotics. All uptake assays may be performed on 7-day differentiated cells, and treatment onset may be timed accordingly. Cells may be treated with reference substances (such as metformin (100 or 400 μM), phenformin (100 μM), or 2,4-dinitrophenol 10-100 μM), compounds described herein, or vehicle (DMSO) in complete differentiation medium. DMSO concentration may be fixed at 0.1% for all conditions. Cells may be routinely inspected for abnormal morphology by phase-contrast microscopy at the conclusion of the treatment period. […] Cells may be then washed twice in glucose-free KPB at 37° C. before incubation for exactly 10 min at 37° C. in glucose-free KPB containing 0.5 μCi/ml 2-deoxy-D-[1-3H]glucose (Amersham Biosciences; Buckinghamshire, UK). Cells may be then placed on ice and immediately washed three times with ice-cold KPB. Cells may be inspected for monolayer detachment and lysed in 0.1 N NaOH with scraping. […] Three or more independent experiments of 18 hours treatment duration may be performed for each test compound, with three or more replicates per condition per experiment. Vehicle-control and 2,4-dinitrophenol conditions may be included on every plate for the purpose of standardizing.

[4] = tested on: glucose-6-phosphatase (G6Pase) activity in H4IIE hepatocytes; test: Glucose-6-phosphatase activity in H4IIE hepatocytes; format: cell-based, murine; conditions: 16 h; for suppression of G6Pase activity: 12.5 μM, result in words; for increase in G6Pase activity: 1 μM
Experimental: 2.4 Glucose-6-phosphatase activity in H4IIE hepatocytes: H4IIE murine hepatocytes (American Type Culture Collection) were cultured to confluence in 12-well plates in DMEM supplemented with 10% FBS and antibiotics. […] Effects of test compounds on cellular viability were assessed by measuring the release of lactate dehydrogenase (LDH) into the culture medium at the end of a 16 h treatment using a commercial kit (Cytotoxicity Detection Kit; Roche Diagnostics; Laval, QC) as per the manufacturer's instructions; LDH release was expressed as % of total (medium+lysate) LDH content for each well. Cells were also routinely inspected for abnormal morphology by phase-contrast microscopy at the conclusion of the treatment period. Following treatment, cells were washed in HEPES-buffered saline (10 mM HEPES, pH 7.4, 150 mM NaCl) at 37° C. Glucose-6-phosphatase (G6Pase) activity was assessed by measuring the rate of glucose formation in the presence of a non-limiting amount of glucose-6-phosphate (G6P), as done by others [39B, 40B]. Glucose production was measured with a commercial glucose assay kit (AutoKit Glucose; Wako Diagnostics; Richmond, Va.). Two hundred μl of AutoKit Glucose buffer solution diluted 1:4 in water were added to each well. Cells were then lysed by the addition of 50 μl of 0.05% Triton X-100 in similarly diluted AutoKit Glucose buffer solution. […] At 37° C., after which time 500 μl of AutoKit Glucose color reagent were added and incubation was continued for exactly 5 min. Samples were then rapidly transferred to microcentrifuge tubes. Fifty μl were removed for assay of total protein content in order to account for effects of test compounds on cellular viability or proliferation [41B]. A commercial protein assay kit based on the Bradford method was used (Protein Assay; Bio-Rad Laboratories; Hercules, Calif.). […] The remaining volume was centrifuged at 3000×g for 5 min. Absorbance of the supernatant was measured at 505 nm at ambient temperature and glucose concentration was calculated from a standard curve performed in parallel. Control wells without exogenous G6P were included on each plate for each treatment condition and activity measured from these wells was subtracted from activity measured in the presence of exogenous G6P. G6Pase activity calculated in this way was then expressed normalized to protein content on a well-by-well basis. Two independent experiments in cells of different passages were performed for each of the selected test compounds, with four to six replicates per condition per experiment.
Protocol for assay of glucose-6-phosphatase activity in H4IIE or other hepatocytes: H4IIE murine hepatocytes (American Type Culture Collection) may be cultured to confluence in 12-well plates in Dulbecco's modified Eagle's medium (DMEM) supplemented with 10% fetal bovine serum (FBS), and antibiotics. […] Effects of test compounds on cellular viability may be assessed by measuring the release of lactate dehydrogenase (LDH) into the culture medium at the end of a 16 hour treatment using a commercial kit (e.g., Cytotoxicity Detection Kit; Roche Diagnostics; Laval, QC) as per the manufacturer's instructions; LDH release may be expressed as % of total (i.e., medium+lysate) LDH content for each well. Cells may also be routinely inspected for abnormal morphology by phase-contrast microscopy at the conclusion of the treatment period. Following treatment, cells may be washed in HEPES-buffered saline (10 mM HEPES, pH 7.4, 150 mM NaCl) at 37° C. Glucose-6-phosphatase (G6Pase) activity may be assessed by measuring the rate of glucose formation in the presence of a non-limiting amount of glucose-6-phosphate (G6P). Glucose production may be measured with a commercial glucose assay kit (e.g., AutoKit Glucose; Wako Diagnostics; Richmond, Va.). Two hundred μl of AutoKit Glucose buffer solution diluted 1:4 in water may be added to each well.

C2C12 myotubes = test: Morphology / monolayer detachment inspection of treated myotubes; format: cell-based, murine; conditions: 100 μM, 18 h
Experimental: 2.3 ^3H-deoxyglucose uptake in C2C12 myotubes: Cell culture and the ^3H-deoxyglucose uptake assay were performed as previously described [34B, 35B, 37B]. Briefly, C2C12 murine skeletal myoblasts (American Type Culture Collection; Manassas, Va.) were cultured under standard conditions in 12-well plates. Cells were proliferated to 80% confluence in high-glucose Dulbecco's modified Eagle's medium (DMEM; Wisent; St-Bruno, QC) supplemented with 10% fetal bovine serum (FBS; Wisent), 10% horse serum (HS), and antibiotics. Differentiation into multinucleated myotubes was then promoted with DMEM supplemented with 2% HS and antibiotics. All uptake assays were performed on 7-day differentiated cells, and treatments were timed accordingly. […] DMSO concentration was fixed at 0.1% for all conditions. Cells were routinely inspected for abnormal morphology by phase-contrast microscopy at the conclusion of the treatment period. […] Cells were then washed twice in glucose-free KPB at 37° C. before incubation for exactly 10 min at 37° C. in glucose-free KPB containing 0.5 μCi/ml 2-deoxy-D-[1-^3H]glucose (Amersham Biosciences; Buckinghamshire, UK). Cells were then placed on ice and immediately washed three times with ice-cold KPB. Cells were inspected for monolayer detachment and lysed in 0.1 N NaOH with scraping. […]

Row | Compound | Measured Uncoupling Activity (% uncoupling ± SEM @ 100 μM) ([1]; 100 μM) [% uncoupling] | Uncoupling (%) ([1]; test conc. 25 μM) | Uncoupling (%) ([1]; test conc. 100 μM) | Inhibitory effect (%) ([2]; test conc. 25 μM) | Residual capacity (%) ([2]; test conc. 25 μM) | Inhibitory effect (%) ([2]; test conc. 100 μM) | Residual capacity (%) ([2]; test conc. 100 μM) | suppression of G6Pase activity [4] | further results
1 | O=C(/C=C/c1ccc(O)c(O)c1)c1ccc(O)cc1O [butein] | 71 ± 4 | 26 ± 4 | 71 ± 4 | 23 | 51 ± 12 | 29 | 0 ± 0 | exceeding the effect of metformin at 400 μM | uncoupling activity ([1]; 50 μM in 0.1% DMSO (FIG. 19)): partial uncoupling; Measured Uncoupling (% uncoupling ± SEM @ 100 μM) ([1]; 100 μM): 71 ± 4 % uncoupling; inhibitory effect on oxidative phosphorylation [2]: inhibition of ADP-stimulated consumption; increase in basal glucose uptake ([3]; at ⅛th of metformin's concentration (400 μM)): 269%; effect on basal glucose uptake relative to metformin ([3]; metformin 400 μM): more than 6 fold
2 | O=C(/C=C/c1ccccc1)c1ccccc1 [chalcone] | −6 ± 0 |  | −6 ± 0 |  |  | 65 | 35 ± 5 | did not suppress G6Pase activity | uncoupling activity ([1]; 50 μM in 0.1% DMSO (FIG. 19)): devoid of uncoupling activity; uncoupling activity ([1]; 100 μM, result in words): inactive; inhibitory effect on oxidative phosphorylation [2]: small inhibitory effect; inhibition of ADP-stimulated oxygen consumption ([2]; screening at 100 μM): inhibitory activity
3 | COc1cc(/C=C/C(=O)CC(=O)/C=C/c2ccc(O)c(OC)c2)ccc1O [curcumin] |  | 42 ± 8 | 79 ± 6 | 17 | 41 ± 9 | 21 | 0 ± 0 |  | indications of cytotoxicity (C2C12 myotubes): increased susceptibility to monolayer detachment
4 | C[C@@H]1C[C@H]2[C@@H]3CCC4=CC(=O)C=C[C@]4(C)[C@@]3(F)[C@@H](O)C[C@]2(C)[C@@]1(O)C(=O)CO [dexamethasone] |  |  |  |  |  |  |  |  | increase in G6Pase activity [4]: 56%; increase in G6Pase activity ([4]; listed as Dexamethasone): 56±10%
5 | O=C(/C=C/c1ccc(O)cc1)c1ccc(O)cc1O [isoliquiritigenin] | 108 ± 7 | 24 ± 3 | 108 ± 7 | 11 | 65 ± 6 | 0 | 0 ± 0 | exceeding the effect of metformin at 400 μM | uncoupling activity ([1]; 100 μM, result in words): complete uncoupling; Measured Uncoupling (% uncoupling ± SEM @ 100 μM) ([1]; 100 μM): >100 % uncoupling
6 | O=c1c(O)c(-c2ccc(O)cc2)oc2cc(O)cc(O)c12 [kaempferol] | 25 ± 2 | 10 ± 1 | 25 ± 2 | 28 | 62 ± 5 | 47 | 28 ± 4 |  | indications of cytotoxicity (C2C12 myotubes): decreased uptake relative to vehicle-control levels
7 | CN(C)C(=N)N=C(N)N [metformin] |  |  |  |  |  |  |  |  | increase in basal glucose uptake ([3]; 400 μM): 43%; suppression of G6Pase activity per mg total protein ([4]; 400 μM): 56%
8 | [H]/N=C(/N)N/C(=N/[H])NCCc1ccccc1 [phenformin] |  |  |  |  |  |  |  |  | increase in basal glucose uptake ([3]; 100 μM): 48%
